*: point of attachment. AMC = Cc1cc(=O)oc2cc(N*)ccc12
Assays:
[1] = tested on: HeLa cells; experiment: Intact HeLa cell desuccinylation/deacetylation assay; type: cell-based, human; conditions: 200 μM Ac-Lys(Ac.)-AMC, four hours, TSA 1 μM
Method: HeLa cells were cultured to 95% confluence in the wells of ½-volume 96-well plates. […] After the indicated time, cells were lysed with detergent and trypsin added to release AMC from desuccinylated or deacetylated substrate and then fluorescence read (Ex.360 nm/Em. 460 nm). For “0 hr.” samples, substrate, inhibitors, lysis buffer and trypsin were added simultaneously. Bars represent the mean of three determinations and the error bars the Standard Deviation from that mean. Statistically significant differences between the fluorescences of “4 hr.” and “0 hr.” samples (Student's t-test) are indicated by asterisks as follows: *,p<0.02; **, p<0.002.
An assay employing Ac-Lys(Ac.)-AMC to measure the HDAC and sirtuin deacetylase activity of intact cultured cells has been described (Howitz, K. T. et al. Nature 425, 191-196 (2003); Product Manual of Enzo Life Sciences Cat. # BML-AK-503, “HDAC Fluorimetric Cellular Activity Assay Kit”, Appendix F). Ac-Lys(Ac)-AMC is added to the culture medium, enters the cells and is deacetylated by HDACs and sirtuins in their native intracellular context. Measurement of the amount of Ac-Lys-AMC produced by intracellular deacetylation is then accomplished by detergent lysis of the cells and release of the AMC fluorophore by trypsin. We therefore investigated whether Ac-Lys(Succ.)-AMC could be used to measure intracellular desuccinylation activity, in a similar fashion, with cultured HeLa cells. […] These latter, deacetylation results are consistent with previous observations made with this assay system (see Howitz, K. T. et al. Nature 425, 191-196 (2003) and Appendix F).
Assays (FIG. 10) were performed according to the manufacturer's instructions for the ““HDAC Fluorometric Cellular Activity Assay Kit” (ELS Cat. # BML-AK503), with exceptions described as follows. Where indicated the “Fluor de Lys Substrate” (Ac-Lys(Ac.)-AMC; ELS Cat. # BML-KI104) was replaced with Ac-Lys(Succ.)-AMC (1).

[2] = tested on: HeLa cell extracts; experiment: HeLa cell extract Ac-Lys(ε-succinyl)-AMC desuccinylation activity; type: biochemical, human; conditions: 50 μM Ac-Lys(Succ.)-AMC, +NAD^+ 500 μM; TSA 1 μM, suramin 200 μM
Method: (§1) Enzyme and extract catalog products obtained from ENZO Life Sciences included: HDAC1 (Cat. # BML-SE456), HDAC2 (Cat. # BML-SE500), HDAC3 (Cat. # BML-SE507), HDAC3/NCOR1 Complex (Cat. # BML-SE515), HDAC6 (Cat. # BML-SE508), HDAC8 (Cat. # BML-SE145), HDAC10 (Cat. # BML-SE559), HDAC11 (Cat. # BML-SE560), SIRT1 (Cat. # BML-SE239), SIRT2 (Cat. # BML-SE251), SIRT3 (Cat. # BML-SE270), SIRT5 (Cat. # BML-SE555), HeLa Nuclear Extract (Cat. # BML-KI140), Trypsin (“Fluor de Lys Developer”, 80 mg/ml bovine trypsin in 1 mM HCl, Cat. # BML-KI105 or “Fluor de Lys Developer II”, 80 mg/ml bovine trypsin in 1 mM HCl, Cat. # BML-KI176). […] Enzymes obtained from BPS Bioscience, San Diego, Calif. included: human recombinants SIRT4 (Cat. #50015), SIRT6 (Cat. #50017), SIRT7 (Cat. #50018). HeLa whole cell extract was obtained from HeLa S3 cells (American Type Culture Collection) grown in a medium of MEM/10% fetal bovine serum (FBS) as follows: 1) 9×10^6 cells were suspended by trypsinization, followed by a phosphate buffered saline (PBS) rinse and addition of MEM/10% FBS (1.5 mL) to eliminate trypsin before transfer to a 15 mL conical tube; 2) cells were sedimented by a low speed centrifugation, gently resuspended in PBS and sedimented again and supernatant removed; 3) lysis was induced by resuspension in 0.8 mL 50 mM Tris/HCl, pH 8.0 with the non-denaturing detergent NP-40 (0.5%), placement on ice and brief vortexing every 5 min. for 30 min.; 4) 100 μl of a concentrated salt solution in the same buffer was added in order to bring the final buffer composition to 50 mM Tris/C1, pH 8.0, 137 mM NaCl, 2.7 mM KCl, 1 mM MgCl2, 0.5% NP-40; 5) particulate matter was cleared by centrifugation and the cleared lysate supernatant transferred to a 1.5 mL Eppendorf tube and stored on ice until use in activity assays.
Assays were performed at 37° C., according to the manufacturer's instructions for the “SIRT1 Fluorometric Drug Discovery Kit” from Enzo Life Sciences (ELS) (Cat. # BML-AK555), with exceptions described as follows. […]

[3] = target: T1, SIRT5 (Homo sapiens, UniProt Q9NXA8); experiment: Inhibition of SIRT5 desuccinylation of Ac-Lys(Succ.)-AMC; type: biochemical; set-up: purchased Enzo Life Sciences BML-SE555; conditions: three parameter Hill-Slope model, bottom fixed at 0
T1 sequence (Q9NXA8 37-310): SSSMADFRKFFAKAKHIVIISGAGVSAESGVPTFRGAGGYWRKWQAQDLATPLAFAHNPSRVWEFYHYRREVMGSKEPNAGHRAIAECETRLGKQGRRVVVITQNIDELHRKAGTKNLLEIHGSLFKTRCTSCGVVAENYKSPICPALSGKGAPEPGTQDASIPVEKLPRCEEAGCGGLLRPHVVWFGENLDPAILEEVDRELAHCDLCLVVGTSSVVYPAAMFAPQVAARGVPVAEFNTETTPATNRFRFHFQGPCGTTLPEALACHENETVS
Text: Signal development (trypsin treatment) and fluorescence readings were done as described, as were the conversion of fluorescence increases to rates in units of pmol/min/μg (FIG. 5). Data points represent the mean of three determinations and the error bars are the standard deviations from those means. The dose-response curve was derived from a least-squares fit to a three parameter Hill-Slope model (bottom fixed at 0 pmol/min/μg), y=top/(1+(x/IC50)^slope).
Data points represent the mean of three determinations and the error bars are the standard deviations from those means. The dose-response curve was derived from a least-squares fit to a three parameter Hill-Slope model (bottom fixed at 0 pmol/min/μg), y=top/(1+(x/IC50)^slope).
(§2) Assays were performed at 37° C., according to the manufacturer's instructions for the “SIRT1 Fluorometric Drug Discovery Kit” from Enzo Life Sciences (ELS) (Cat. # BML-AK555), with exceptions described as follows. Where indicated in figures and text, SIRT1 enzyme was replaced with another enzyme or extract and the “Fluor de Lys-SIRT1 Substrate” (Ac-Arg-His-Lys-Lys(Ac)-AMC; ELS Cat. # BML-KI-177) was replaced with another acetylated, succinylated or trifluoroacetylated substrate.

[4] = target: T2, SIRT2 (Homo sapiens, UniProt Q8IXJ6); conditions: varied Lysyl, cited from earlier work
T2 sequence (Q8IXJ6 1-389): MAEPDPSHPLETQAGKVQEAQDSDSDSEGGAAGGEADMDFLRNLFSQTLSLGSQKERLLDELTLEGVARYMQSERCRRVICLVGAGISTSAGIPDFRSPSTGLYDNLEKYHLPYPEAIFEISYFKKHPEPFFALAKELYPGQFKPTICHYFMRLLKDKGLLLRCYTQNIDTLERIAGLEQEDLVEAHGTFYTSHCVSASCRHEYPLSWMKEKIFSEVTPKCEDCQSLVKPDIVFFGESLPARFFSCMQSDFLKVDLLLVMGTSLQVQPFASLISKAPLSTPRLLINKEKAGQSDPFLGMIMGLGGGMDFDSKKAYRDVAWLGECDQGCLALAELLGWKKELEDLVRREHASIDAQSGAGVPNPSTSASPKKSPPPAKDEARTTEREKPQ

[5] = target: T3, HDAC5 (Homo sapiens, UniProt Q9UQL6); experiment: HDAC activity with fluorogenic lysyl substrates; type: biochemical; conditions: 50 μM substrate
T3 construct: made in house; host or cells: E. coli
Method: (§3) The Ac-Lys(Succ.)-AMC substrate was tested for activity with recombinant preparations of human HDACs 1-11, SIRTs 1-4, 6 and 7, a complex of HDAC3 with a fragment of the activating protein NCOR1 and with HeLa nuclear extract, a rich source of active HDACs in their native multiprotein complexes.
as §1, §2

[6] = target: T4, HDAC7 (Homo sapiens, UniProt Q8WUI4); experiment: HDAC activity with fluorogenic lysyl substrates; type: biochemical; conditions: 50 μM substrate
T4 construct: made in house; host or cells: E. coli
T4 sequence (Q8WUI4 483-903): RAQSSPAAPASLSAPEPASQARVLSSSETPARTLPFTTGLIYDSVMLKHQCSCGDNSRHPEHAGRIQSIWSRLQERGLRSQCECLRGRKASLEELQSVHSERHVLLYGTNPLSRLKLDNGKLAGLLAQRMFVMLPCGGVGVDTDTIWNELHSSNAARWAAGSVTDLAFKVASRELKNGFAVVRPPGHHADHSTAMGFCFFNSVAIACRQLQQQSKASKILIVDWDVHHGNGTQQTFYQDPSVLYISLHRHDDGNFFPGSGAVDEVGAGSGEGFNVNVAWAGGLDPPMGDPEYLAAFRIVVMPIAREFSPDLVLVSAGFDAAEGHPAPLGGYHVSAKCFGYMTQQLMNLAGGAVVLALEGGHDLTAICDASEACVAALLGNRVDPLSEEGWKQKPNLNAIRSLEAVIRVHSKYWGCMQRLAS
Method: as §3, §1, §2

[7] = target: T5, HDAC9 (Homo sapiens, UniProt Q9UKV0); experiment: HDAC activity with fluorogenic lysyl substrates; type: biochemical; conditions: 50 μM substrate
T5 construct: made in house; host or cells: E. coli
Method: as §3, §1, §2

[8] = tested on: HDAC4; experiment: HDAC activity with fluorogenic lysyl substrates; type: biochemical, human; conditions: 50 μM substrate
Method: as §3
Enzyme and extract catalog products obtained from ENZO Life Sciences included: HDAC1 (Cat. # BML-SE456), HDAC2 (Cat. # BML-SE500), HDAC3 (Cat. # BML-SE507), HDAC3/NCOR1 Complex (Cat. # BML-SE515), HDAC6 (Cat. # BML-SE508), HDAC8 (Cat. # BML-SE145), HDAC10 (Cat. # BML-SE559), HDAC11 (Cat. # BML-SE560), SIRT1 (Cat. # BML-SE239), SIRT2 (Cat. # BML-SE251), SIRT3 (Cat. # BML-SE270), SIRT5 (Cat. # BML-SE555), HeLa Nuclear Extract (Cat. # BML-KI140), Trypsin (“Fluor de Lys Developer”, 80 mg/ml bovine trypsin in 1 mM HCl, Cat. # BML-KI105 or “Fluor de Lys Developer II”, 80 mg/ml bovine trypsin in 1 mM HCl, Cat. # BML-KI176). […] Enzymes obtained from BPS Bioscience, San Diego, Calif. included: human recombinants SIRT4 (Cat. #50015), SIRT6 (Cat. #50017), SIRT7 (Cat. #50018). […]

[9] = target: T6, SIRT3 (Homo sapiens, UniProt Q9NTG7); experiment: Sirtuin activity with fluorogenic lysyl substrates; type: biochemical; conditions: 50 μM substrate, 500 μM NAD^+
T6 construct: purchased ENZO Life Sciences BML-SE270
T6 sequence (Q9NTG7 1-399): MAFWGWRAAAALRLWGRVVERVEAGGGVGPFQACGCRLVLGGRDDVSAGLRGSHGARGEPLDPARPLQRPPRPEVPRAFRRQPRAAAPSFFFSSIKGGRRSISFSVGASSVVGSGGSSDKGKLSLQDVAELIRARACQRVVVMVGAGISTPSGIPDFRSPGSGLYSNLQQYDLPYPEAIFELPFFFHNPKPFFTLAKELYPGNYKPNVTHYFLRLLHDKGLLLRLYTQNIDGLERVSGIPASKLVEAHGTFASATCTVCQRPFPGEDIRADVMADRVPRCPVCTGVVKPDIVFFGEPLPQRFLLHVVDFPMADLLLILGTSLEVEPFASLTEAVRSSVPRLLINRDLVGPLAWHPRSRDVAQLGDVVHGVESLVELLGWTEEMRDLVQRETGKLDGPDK
Method: as §3, §1, §2

[10] = target: T2, SIRT2; experiment: Sirtuin activity with fluorogenic lysyl substrates; type: biochemical; conditions: 50 μM substrate, 500 μM NAD^+
Method: as §3, §1, §2

Chain of HDAC4 (P56524 626-1084 limits assumed): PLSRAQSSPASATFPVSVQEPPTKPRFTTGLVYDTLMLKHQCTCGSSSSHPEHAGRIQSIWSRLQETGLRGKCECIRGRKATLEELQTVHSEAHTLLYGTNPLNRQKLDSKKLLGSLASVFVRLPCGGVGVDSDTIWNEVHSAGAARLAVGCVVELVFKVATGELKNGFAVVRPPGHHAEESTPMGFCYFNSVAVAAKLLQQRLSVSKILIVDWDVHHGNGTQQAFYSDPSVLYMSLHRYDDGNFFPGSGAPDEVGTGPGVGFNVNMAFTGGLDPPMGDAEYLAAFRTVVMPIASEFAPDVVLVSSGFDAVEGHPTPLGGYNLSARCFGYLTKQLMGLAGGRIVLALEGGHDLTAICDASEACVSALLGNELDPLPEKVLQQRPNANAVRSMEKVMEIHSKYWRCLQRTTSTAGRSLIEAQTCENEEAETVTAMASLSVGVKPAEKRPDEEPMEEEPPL
T3 sequence (Q9UQL6 656-1122): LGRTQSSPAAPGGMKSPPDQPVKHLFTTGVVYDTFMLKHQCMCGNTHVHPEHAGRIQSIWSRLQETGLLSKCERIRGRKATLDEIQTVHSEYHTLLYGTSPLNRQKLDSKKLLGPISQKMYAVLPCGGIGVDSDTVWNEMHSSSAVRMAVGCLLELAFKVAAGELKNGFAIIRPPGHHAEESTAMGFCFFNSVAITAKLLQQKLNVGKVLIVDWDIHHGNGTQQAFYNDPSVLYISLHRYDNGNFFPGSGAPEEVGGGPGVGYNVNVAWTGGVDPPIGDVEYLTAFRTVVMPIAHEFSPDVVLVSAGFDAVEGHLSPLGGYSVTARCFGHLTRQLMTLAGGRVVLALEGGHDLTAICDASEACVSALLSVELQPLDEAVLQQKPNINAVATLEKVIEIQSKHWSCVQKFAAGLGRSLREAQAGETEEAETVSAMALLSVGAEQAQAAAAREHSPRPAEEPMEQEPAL
T5 sequence (Q9UKV0 644-1066 isoform Q9UKV0-5): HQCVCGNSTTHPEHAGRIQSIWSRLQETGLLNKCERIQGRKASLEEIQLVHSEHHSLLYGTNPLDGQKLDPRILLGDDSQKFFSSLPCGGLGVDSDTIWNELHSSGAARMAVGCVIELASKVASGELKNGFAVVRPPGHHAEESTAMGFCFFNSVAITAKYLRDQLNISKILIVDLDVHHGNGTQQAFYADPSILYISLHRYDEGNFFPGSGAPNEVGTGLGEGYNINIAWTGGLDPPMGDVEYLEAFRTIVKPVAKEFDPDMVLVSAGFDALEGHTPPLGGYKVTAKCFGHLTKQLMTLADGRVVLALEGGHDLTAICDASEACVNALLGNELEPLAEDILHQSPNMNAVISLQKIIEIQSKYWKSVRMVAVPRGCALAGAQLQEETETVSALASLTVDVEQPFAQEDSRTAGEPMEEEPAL

Compound: CC(/C=C/C(=O)NO)=C\[C@@H](C)C(=O)c1ccc(N(C)C)cc1 [trichostatin A]
- Fraction of deacetylation sensitive to inhibitor [1]: > 90%
- Inhibition of the total 2 hr. fluorescence increase [2]: ~50%

Compound: Cc1ccc(C(=O)Nc2ccc(S(=O)(=O)O)c3cc(S(=O)(=O)O)cc(S(=O)(=O)O)c23)cc1NC(=O)c1cccc(NC(=O)Nc2cccc(C(=O)Nc3cc(C(=O)Nc4ccc(S(=O)(=O)O)c5cc(S(=O)(=O)O)cc(S(=O)(=O)O)c45)ccc3C)c2)c1 [suramin]
- slope (fitted parameter of dose-response curve) [3]: 2.37
- top (fitted parameter of dose-response curve) [3]: 127 pmol/min/µg
- Inhibition of the total 2 hr. fluorescence increase [2]: ~50%

Compound: Hist. H3 1-20, K9Ac: unlabeled peptide, histone H3 residues 1-20 acetylated on lysine-9
- Km ([4]; Borra et al., 2004, read-out: Km (Lysyl substrate)): 24 µM
- kcat ([4]; Borra et al., 2004): 0.24 s⁻¹

Compound: Ac-Leu-Gly-Lys(TFAc)-AMC [Ac-LGK(TFAc)-AMC, reference compound]
- Activity (pmol/min/μg) [5]: Ac-LGK(TFAc)-AMC/9960 pmol/min/μg
- Activity (pmol/min/μg) [6]: Ac-LGK(TFAc)-AMC/1670 pmol/min/μg
- Activity (pmol/min/μg) [7]: Ac-LGK(TFAc)-AMC/3330 pmol/min/μg
- Activity (pmol/min/μg) [8]: Ac-LGK(TFAc)-AMC/1390 pmol/min/μg

Compound: Ac-Gln-Pro-Lys-Lys(Ac)-AMC (Ac-QPKK(Ac)-{AMC}; SMILES CC(=O)NCCCC[C@H](NC(=O)[C@H](CCCCN)NC(=O)[C@@H]1CCCN1C(=O)[C@H](CCC(N)=O)NC(C)=O)C(=O)Nc1ccc2c(C)cc(=O)oc2c1) [Ac-QPKK(Ac)-AMC, reference compound]
- Activity (pmol/min/μg) [9]: Ac-QPKK(Ac)-AMC/10.8 pmol/min/μg
- Activity (pmol/min/μg) [10]: Ac-QPKK(Ac)-AMC/18.6 pmol/min/μg

Source: patent US10920265B2, “Compounds and methods for detection of enzymes that remove methyl succinyl groups from epsilon-amino lysine moieties” (Enzo Life Sciences, Inc., priority 2011, dated 2021)
